From patent US9499550B2 (BRISTOL-MYERS SQUIBB COMPANY, priority 2012, dated 2016)

Columns and labels:
[1] = tested on: HCV genotype 1a (H77 strain) replicon in HUH-7 cells; assay: HCV replicon luciferase reporter assay, genotype 1a; type: cell-based; settings: Hepatitis C virus, Huh-7, 72 h, HCV genotype 1a replicon luciferase, 3 days incubation, read-out: LE_1a (EC50, range)
Outline: (§1)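 Replicon inhibition for both genotypes was measured as Renilla luciferase signal (EnduRen, 7.5 μM final, 2 h) after 3-day, 37° C exposure of replicon-bearing HUH-7 cells in 4% FCS DMEM, 0.5% DMSO. The 1b construct carries S1179I; the 1a H77 construct carries P1496L and S2204I. Twenty-point, 3-fold dilutions were fitted four-parametrically for EC50, and CC50 was taken from multiplexed Cell Titer-Blue.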

[2] = tested on: HCV genotype 1b (Con1) replicon in HUH-7 cells; assay: HCV replicon luciferase reporter assay, genotype 1b; type: cell-based; settings: Hepatitis C virus, Huh-7, 72 h, HCV genotype 1b replicon luciferase, 3 days incubation, read-out: LE_1b (EC50, range)
Outline: as §1

HCV = settings: combination therapy, HCV infected patients; cited from earlier work

Row | Compound | EC50 [1] | EC50 [2] | sustained efficacy (HCV)
1 | CC(C)Oc1cc2ccccc2c(O[C@@H]2C[C@H]3C(=O)N[C@]4(C(=O)NS(=O)(=O)C5(C)CC5)C[C@H]4/C=C\CC[C@@H](C)C[C@@H](C)[C@H](NC(=O)OC(C)(C)C(F)(F)F)C(=O)N3C2)n1 [Compound 6104, 1,1,1-trifluoro-2-methylpropan-2-yl((2R,6S,7R,9R,13aS,14aR,16aS,Z)-2-((3-isopropoxyisoquinolin-1-yl)oxy)-7,9-dimethyl-14a-(((1-methylcyclopropyl)sulfonyl)carbamoyl)-5,16-dioxo-1,2,3,5,6,7,8,9,10,11,13a,14,14a,15,16,16a-hexadecahydrocyclopropa[e]pyrrolo[1,2-a][1,4]diazacyclopentadecin-6-yl)carbamate] | 1.01 to 5 nM | 0.51 to 1 nM | 
2 | CC(C)Oc1cc2ccccc2c(O[C@@H]2C[C@H]3C(=O)N[C@]4(C(=O)NS(=O)(=O)C5(C)CC5)C[C@H]4/C=C\CC[C@H](C)C[C@@H](C)[C@H](NC(=O)OC(C)(C)C(C)(F)F)C(=O)N3C2)n1 [Compound 6105, 3,3-difluoro-2-methylbutan-2-yl((2R,6S,7R,9S,13aS,14aR,16aS,Z)-2-((3-isopropoxyisoquinolin-1-yl)oxy)-7,9-dimethyl-14a-(((1-methylcyclopropyl)sulfonyl)carbamoyl)-5,16-dioxo-1,2,3,5,6,7,8,9,10,11,13a,14,14a,15,16,16a-hexadecahydrocyclopropa[e]pyrrolo[1,2-a][1,4]diazacyclopentadecin-6-yl)carbamate] | 5.01 to 35 nM | 1.01 to 5 nM | 
3 | CC(C)Oc1cc2ccccc2c(O[C@@H]2C[C@H]3C(=O)N[C@]4(C(=O)NS(=O)(=O)C5(C)CC5)C[C@H]4/C=C\CC[C@@H](C)C[C@@H](C)[C@H](NC(=O)OC(C)(C)C(C)(F)F)C(=O)N3C2)n1 [Compound 6106, 3,3-difluoro-2-methylbutan-2-yl((2R,6S,7R,9R,13aS,14aR,16aS,Z)-2-((3-isopropoxyisoquinolin-1-yl)oxy)-7,9-dimethyl-14a-(((1-methylcyclopropyl)sulfonyl)carbamoyl)-5,16-dioxo-1,2,3,5,6,7,8,9,10,11,13a,14,14a,15,16,16a-hexadecahydrocyclopropa[e]pyrrolo[1,2-a][1,4]diazacyclopentadecin-6-yl)carbamate] | 1.01 to 5 nM | 0.1 to 0.5 nM | 
4 | CCOc1cc2ccccc2c(O[C@@H]2C[C@H]3C(=O)N[C@]4(C(=O)NS(=O)(=O)C5(CF)CC5)C[C@H]4/C=C\CC[C@@H](C)C[C@@H](C)[C@H](NC(=O)OC(C)(C)C)C(=O)N3C2)n1 [Compound 6108, tert-butyl ((2R,6S,7R,9R,13aS,14aR,16aS,Z)-2-((3-ethoxyisoquinolin-1-yl)oxy)-14a-(((1-(fluoromethyl)cyclopropyl)sulfonyl)carbamoyl)-7,9-dimethyl-5,16-dioxo-1,2,3,5,6,7,8,9,10,11,13a,14,14a,15,16,16a-hexadecahydrocyclopropa[e]pyrrolo[1,2-a][1,4]diazacyclopentadecin-6-yl)carbamate] | 0.51 to 1 nM | 0.1 to 0.5 nM | 
5 | CC(C)Oc1cc2ccccc2c(O[C@@H]2C[C@H]3C(=O)N[C@]4(C(=O)NS(=O)(=O)C5(CF)CC5)C[C@H]4/C=C\CC[C@@H](C)C[C@@H](C)[C@H](NC(=O)OC(C)(C)C)C(=O)N3C2)n1 [Compound 6110, tert-butyl ((2R,6S,7R,9R,13aS,14aR,16aS,Z)-14a-(((1-(fluoromethyl)cyclopropyl)sulfonyl)carbamoyl)-2-((3-isopropoxyisoquinolin-1-yl)oxy)-7,9-dimethyl-5,16-dioxo-1,2,3,5,6,7,8,9,10,11,13a,14,14a,15,16,16a-hexadecahydrocyclopropa[e]pyrrolo[1,2-a][1,4]diazacyclopentadecin-6-yl)carbamate] | 1.01 to 5 nM | 0.51 to 1 nM | 
6 | CCOc1cc2ccccc2c(O[C@@H]2C[C@H]3C(=O)N[C@]4(C(=O)NS(=O)(=O)C5(CF)CC5)C[C@H]4/C=C\CC[C@@H](C)C[C@@H](C)[C@H](NC(=O)OC(C)(C)C(F)(F)F)C(=O)N3C2)n1 [Compound 6112, 1,1,1-trifluoro-2-methylpropan-2-yl((2R,6S,7R,9R,13aS,14aR,16aS,Z)-2-((3-ethoxyisoquinolin-1-yl)oxy)-14a-(((1-(fluoromethyl)cyclopropyl)sulfonyl)carbamoyl)-7,9-dimethyl-5,16-dioxo-1,2,3,5,6,7,8,9,10,11,13a,14,14a,15,16,16a-hexadecahydrocyclopropa[e]pyrrolo[1,2-a][1,4]diazacyclopentadecin-6-yl)carbamate] | 1.01 to 5 nM | 0.51 to 1 nM | 
7 | CCOc1cc2ccccc2c(O[C@@H]2C[C@H]3C(=O)N[C@]4(C(=O)NS(=O)(=O)C5(CF)CC5)C[C@H]4/C=C\CC[C@@H](C)C[C@@H](C)[C@H](NC(=O)OC(C)(C)C(C)(F)F)C(=O)N3C2)n1 [Compound 6114, 3,3-difluoro-2-methylbutan-2-yl((2R,6S,7R,9R,13aS,14aR,16aS,Z)-2-((3-ethoxyisoquinolin-1-yl)oxy)-14a-(((1-(fluoromethyl)cyclopropyl)sulfonyl)carbamoyl)-7,9-dimethyl-5,16-dioxo-1,2,3,5,6,7,8,9,10,11,13a,14,14a,15,16,16a-hexadecahydrocyclopropa[e]pyrrolo[1,2-a][1,4]diazacyclopentadecin-6-yl)carbamate] | 1.01 to 5 nM | 0.1 to 0.5 nM | 
8 | CC(C)Oc1cc2ccccc2c(O[C@@H]2C[C@H]3C(=O)N[C@]4(C(=O)NS(=O)(=O)C5(CF)CC5)C[C@H]4/C=C\CC[C@@H](C)C[C@@H](C)[C@H](NC(=O)OC(C)(C)C(F)(F)F)C(=O)N3C2)n1 [Compound 6116, 1,1,1-trifluoro-2-methylpropan-2-yl((2R,6S,7R,9R,13aS,14aR,16aS,Z)-14a-(((1-(fluoromethyl)cyclopropyl)sulfonyl)carbamoyl)-2-((3-isopropoxyisoquinolin-1-yl)oxy)-7,9-dimethyl-5,16-dioxo-1,2,3,5,6,7,8,9,10,11,13a,14,14a,15,16,16a-hexadecahydrocyclopropa[e]pyrrolo[1,2-a][1,4]diazacyclopentadecin-6-yl)carbamate] | 1.01 to 5 nM | 1.01 to 5 nM | 
9 | CC(C)Oc1cc2ccccc2c(O[C@@H]2C[C@H]3C(=O)N[C@]4(C(=O)NS(=O)(=O)C5(CF)CC5)C[C@H]4/C=C\CC[C@@H](C)C[C@@H](C)[C@H](NC(=O)OC(C)(C)C(C)(F)F)C(=O)N3C2)n1 [Compound 6118, 3,3-difluoro-2-methylbutan-2-yl((2R,6S,7R,9R,13aS,14aR,16aS,Z)-14a-(((1-(fluoromethyl)cyclopropyl)sulfonyl)carbamoyl)-2-((3-isopropoxyisoquinolin-1-yl)oxy)-7,9-dimethyl-5,16-dioxo-1,2,3,5,6,7,8,9,10,11,13a,14,14a,15,16,16a-hexadecahydrocyclopropa[e]pyrrolo[1,2-a][1,4]diazacyclopentadecin-6-yl)carbamate] | 1.01 to 5 nM | 1.01 to 5 nM | 
10 | alpha-interferon and ribavirin |  |  | 40 % of patients
